This note sets out measurements from patent US11207308B2, “Pharmaceutical compositions for combination therapy” (PRILENIA NEUROTHERAPEUTICS LTD., priority 2012, dated 2021).

Experiment [1] relates to Male Sprague-Dawley rats. The experiment is described as follows: Spontaneous locomotor activity, dose-response in drug-naive rats. The note with it: for Spontaneous locomotor activity, % of the vehicle control group mean: full hour of recording; for Spontaneous locomotor activity, period 15-60 minutes post dosing (in words) / Spontaneous locomotor activity, initial 15 min (in words): vs vehicle control; for Effect on spontaneous locomotor activity (in words): all doses tested, 60 min recording; for Spontaneous locomotor activity, initial 15 min (in words): initial 15 min of recording. Type of experiment: in vivo, rat. How it is done: (§1) Rats weighed 160-180 g at the time of arrival.
(§2) The treatment groups consisted of Vehicle (saline; NaCl 0.9% v/w) and ACR16 tested at three doses (11; 33 and 100 μmol/kg).
(§3) KR104: Animals were allocated into five different treatment groups, n=4.
(§4) All compounds were injected s.c. four minutes before start of locomotor activity recording at a volume of 5 ml/kg.
During measurements of behavioural activity, a rat is put in a transparent acrylic cage with matted black floor (W×L×H, 41×41×30 cm) which in turn is placed in the activity monitor. […] Two rows are placed along the front and the side of the floor of the cage, at a 90 degree angle, and the third row is placed 10 cm above the floor to measure vertical activity. Photobeam sensors are spaced 2.5 cm apart.

In experiment [2] the test system is striatal DOPAC. The experiment is described as follows: Striatal DOPAC tissue level (HPLC/EC), dose-response in naive rats. Type of experiment: in vivo, rat. The following applies: mean ± SEM, percentage of vehicle control group mean. How it is done: as §1, §2, §3, §4
(§5) A digital sonifier (Branson Digital Sonifier 250-D) was used to homogenise tissue from the striatum and limbic region. […] All samples were centrifuged at 10.000 rpm for 10 minutes at +4° C. Cortex tissue was filtered in Munktell filter paper 5.5 cm quality 1 F. Tissue eluates were analysed with respect to tissue concentrations (ng/g tissue) of the monoamine transmitter substances (Norepinephrine (NA), dopamine (DA), 5-hydroxytryptamine (5-HT)) as well as their amine metabolites (normetanephrine (NM), 3-methoxytyramine (3-MT)) and acid metabolites ([…] (DOPAC), 5-hydrocyindoleacetic acid (5-HTAA), homovanillic acid (HVA)) by HPLC separations and electrochemical detection (HPLC/EC). Stock standards (DA, NA, 5-HT, 3-MT, DOPAC, HVA, HIAA, 500 μg/ml) and internal standard (AMDA 500 μg/ml) are prepared once every three months. 5-HT and 5HIAA are dissolved in milliQ water. DA, NA, DOPAC, NM, 3-MT and HVA are dissolved in 0.01 M HCl. 5-HT, 5-HIAA, NM and HVA are kept in fridge; DA, DOPAC, NA and 3-MT are kept in freezer.
(§6) Detection potentials relative to Ag/AgCl reference are 0.45 and 0.60V. […] Detection potentials relative to Ag/AgCl reference are 0.45 and 0.65V.

The subject of experiment [3] is striatal dopamine. The experiment is described as follows: Striatal dopamine (DA) tissue level (HPLC/EC), dose-response in naive rats. Type of experiment: in vivo, rat. The note with it: for DA striatum, dose-response in naive rats: mean ± SEM, percentage of vehicle control group mean. How it is done: as §1, §2, §3, §4, §5, §6
Experiment [4] concerns Arc mRNA. The experiment is described as follows: Arc gene expression (Arc mRNA, real-time PCR) in striatum and frontal cortex, dose-response studies. In kind it is in vivo, rat. How it is done:
as §1, §4
Reference genes are HPRT and cyclophilin.
Correct PCR products are confirmed by agarose gel electroforesis (2%) PCR products are purified with PCR purification kit from Qiagen (Valencia, Calif., USA). All genes are sequenced at MWG, Germany.
For the data shown in FIG. 6, the reverse transcription and PCR were performed as follows:
Reversed transcription is performed by using a ThermoScript kit (Invitrogen).
cDNA of Arc and two reference genes, hypoxanthine-guanine phosphoribosyltransferase (HPRT) and cyclophilin A, was amplified by real-time PCR in either a triplex reaction (Tetrabenazine studies) or three singleplex reactions (studies with Pridopidine and haloperidol).

Experiment [5] deals with Male Sprague-Dawley rats. The following applies: for Locomotor activity, % of Tetrabenazine control group mean: full hour of recording.
From the text: No brain tissue was collected from this experiment. […] Each activity monitor consists of a quadratic metal frame equipped with photobeam sensors. […] Each activity monitor is equipped with three rows of infrared photobeam sensors, each row consisting of 16 sensors. […] Photobeam sensors are spaced 2.5 cm apart. Each activity monitor is fitted in an identical sound and light attenuating box (W×L×H—55×55×45) containing a weak house light and a fan. The computer software is written using object oriented programming (LabVIEW™, National instruments, Austin, Tex., USA). Behavioural data from each activity monitor, representing the position (horizontal center of gravity and vertical activity) of the animal at each time, are recorded at a sampling frequency of 25 Hz and collected using a custom written LABView™ application. The data from each recording session are stored and analyzed with respect to distance travelled. Each behavioural recording session lasts 60 min, starting approximately 4 min after the injection of test compound. The results are presented as counts/60 minutes, counts/45 minutes or counts/15 minutes, in arbitrary length units. Statistical comparisons are carried out using Student's t-test against the control group.
Experiment [6] concerns striatal DOPAC. The experiment is described as follows: Striatal DOPAC tissue level (HPLC/EC), interaction with Tetrabenazine. The note with it: percentage of Tetrabenazine control group mean.
In experiment [7] the test system is striatal dopamine. The experiment is described as follows: Striatal dopamine (DA) tissue level (HPLC/EC), interaction with Tetrabenazine. The following applies: percentage of Tetrabenazine control group mean.
The subject of experiment [8] is Arc mRNA. The experiment is described as follows: Arc gene expression (Arc mRNA, real-time PCR) in striatum and frontal cortex, interaction with Tetrabenazine.
Setting [9] is: 0.04 mg/kg s.c. together with Tetrabenazine 0.64 mg/kg.
Where [10] appears, read: 0.12 mg/kg s.c. together with Tetrabenazine 0.64 mg/kg.
The mark [11] stands for this setting: 0.64 mg/kg s.c., vs vehicle control.

Molecules are shown by their SMILES. Where “and” joins values, the source holds several entries; their conditions need not be identical. Equal entries are not always repeated. Entries after “also recorded” stand apart in the source; their conditions may differ. Where two headings read alike, the source gives them in different places. Bounds are passed on as bounds.

For `O=C(CCCN1CCC(O)(c2ccc(Cl)cc2)CC1)c1ccc(F)cc1` [Haloperidol], the “Spontaneous locomotor activity, % of the vehicle control group mean” value in experiment [1] (0.37 mg/kg s.c.) and in experiment [1] (1.1 mg/kg s.c.) was “about 35%” throughout. Besides, the “Spontaneous locomotor activity, period 15-60 minutes post dosing (in words)” value in experiment [1] is “a significant effect (P<0.05) was observed for the 1.1 mg/kg dose group only”. For the same molecule, in experiment [1] (s.c.), the “Effect on spontaneous locomotor activity (in words)” value was “dose-dependent inhibitory effect on spontaneous locomotor activity”. Further, the “Spontaneous locomotor activity, initial 15 min (in words)” value in experiment [1] is “significant reductions (P<0.05) were seen both for the 0.37 and 1.1 mg/kg haloperidol dose groups”. In addition, the “Doses with statistically significant effects on spontaneous locomotor activity” value in experiment [1] (s.c., not at the lowest dose tested, 0.04 mg/kg) is given as not below 0.12 mg/kg. In addition, the “DOPAC striatum, dose-response in naive rats” value in experiment [2] (0.04 mg/kg s.c.) is on record as 171 ± 35%; in experiment [2] (0.12 mg/kg s.c.) it was 276 ± 8 %; in experiment [2] (0.37 mg/kg s.c.), 254 ± 17 %; in experiment [2] (1.1 mg/kg s.c.), 292 ± 10 %. Also, the “DA striatum, dose-response in naive rats” value came out at 95 ± 5% in experiment [3] (0.04 mg/kg s.c.), 78 ± 3 % in experiment [3] (0.12 mg/kg s.c.), 79 ± 5 % in experiment [3] (0.37 mg/kg s.c.) and 81 ± 2 % in experiment [3] (1.1 mg/kg s.c.). Besides, the “Arc mRNA in the striatum, % of the vehicle control group mean” value in experiment [4] (0.12 mg/kg s.c.) was found to be 262%; in experiment [4] (0.37 mg/kg s.c.) it was 331%; in experiment [4] (1.1 mg/kg s.c.), 409%. Moreover, in experiment [4] (dose-response, 0.12, 0.37 and 1.1 mg/kg s.c.), the “Cortical Arc gene expression (in words)” value is “no significant effect”. Further, the “Locomotor activity, % of Tetrabenazine control group mean” value in experiment [5] (0.04 mg/kg s.c. combined with Tetrabenazine 0.64 mg/kg) is 51%; in experiment [5] (0.12 mg/kg s.c. combined with Tetrabenazine 0.64 mg/kg), 41%. Further, in experiment [5] (15-60 min period, combined with Tetrabenazine 0.64 mg/kg, vs Tetrabenazine control), the “Locomotor activity in Tetrabenazine treated rats, 15-60 min (in words)” value is on record as “the reduction was significant for the 0.12 mg/kg dose only”. The “Effect on Tetrabenazine induced locomotor activity reduction (in words)” value in experiment [5] (combined with Tetrabenazine 0.64 mg/kg s.c.) is on record as “further reduced locomotor activity in animals treated with Tetrabenazine”. Further, the “Locomotor activity in Tetrabenazine treated rats, 0-15 min (in words)” value in experiment [5] (first 15 min, combined with Tetrabenazine 0.64 mg/kg, vs Tetrabenazine control) is “this reducing effect was significant at both the 0.04 mg/kg (P<0.01) and the 0.12 mg/kg (P<0.05) doses”. Also, the “DOPAC striatum, interaction with Tetrabenazine” value in experiment [6] (setting [9]) is 187% and 187 ± 6 %; in experiment [6] (setting [10]) it was 218% and 218 ± 12 %. Besides, the figures for the “DA striatum, interaction with Tetrabenazine” value in experiment [7] (setting [9]) and in experiment [7] (setting [10]) were 79 ± 3 % and 87 ± 10%, respectively. In addition, the results for the “Striatal Arc, % of the Tetrabenazine control group mean” value in experiment [8] (0.04 mg/kg s.c. coadministered with Tetrabenazine 0.64 mg/kg) and in experiment [8] (0.12 mg/kg s.c. coadministered with Tetrabenazine 0.64 mg/kg) were 272% and 400%, respectively. Also, the “Cortical Arc gene expression in rats co-treated with Tetrabenazine (in words)” value in experiment [8] (0.04 and 0.12 mg/kg s.c. with Tetrabenazine 0.64 mg/kg) is on record as “no significant effect”.

With `COc1cc2c(cc1OC)C1CC(=O)C(CC(C)C)CN1CC2` (stereo not drawn) [Tetrabenazine, (SS,RR)-3-Isobutyl-9,10-dimethoxy-1,3,4,6,7,11b-hexahydro-pyrido[2,1-a]isoquinolin-2-one], the “Locomotor activity, Tetrabenazine control group vs. vehicle treated controls (in words)” value in experiment [1] (0.64 mg/kg s.c., full hour (P<0.001), 0-15 min and 15-60 min (P<0.01), interaction experiment with Pridopidine) was “significant decrease”. In addition, the “Spontaneous locomotor activity, % of the vehicle control group mean” value in experiment [1] (1.1 mg/kg s.c.) came to 40%. Further, the “Spontaneous locomotor activity, period 15-60 minutes post dosing (in words)” value in experiment [1] was “significant effects (P<0.05) were observed at 0.64 and 1.1 mg/kg”. In addition, the “Effect on spontaneous locomotor activity (in words)” value in experiment [1] (s.c.) is listed as “dose dependently inhibited spontaneous locomotor activity”. In addition, the “Spontaneous locomotor activity, initial 15 min (in words)” value in experiment [1] was “significant reductions (P<0.05) were seen both for the 1.1 and 0.37 mg/kg”. For the same molecule, the “DOPAC striatum, dose-response in naive rats” value in experiment [2] (0.37 mg/kg s.c.) is recorded as 144 ± 8 %; in experiment [2] (0.64 mg/kg s.c.), 208 ± 14 %; in experiment [2] (1.1 mg/kg s.c.) it was 263 ± 19 %. Also, the “DA striatum, dose-response in naive rats” value in experiment [3] (0.37 mg/kg s.c.) amounted to 48 ± 2 %; in experiment [3] (0.64 mg/kg s.c.), 33 ± 3 %; in experiment [3] (1.1 mg/kg s.c.) it was 20 ± 2 %. The “Striatal dopamine, % of vehicle control group mean” value in experiment [3] (0.64 mg/kg, the dose used in the interaction experiments, throughout the studies performed) is on record as “approximately 50%”. The “Arc mRNA in the frontal cortex, % of control group mean” value in experiment [4] (0.64 mg/kg s.c., trend, p=0.14) was 83%. The “Frontal cortex Arc mRNA, Tetrabenazine alone in the interaction experiments (in words)” value in experiment [4] (setting [11]) was “significant decrease; also recorded: tended to decrease”. Moreover, the “Striatal Arc mRNA, Tetrabenazine alone in the interaction experiments (in words)” value in experiment [4] (setting [11]) was “no significant effect”. The “Arc mRNA in the frontal cortex, % of the vehicle control group mean” value in experiment [4] (1.1 mg/kg s.c.) was determined as 66%. Moreover, the “Arc mRNA in the striatum, % of the vehicle control group mean” value in experiment [4] (1.1 mg/kg s.c.) turned out to be 147%.
